Assay results from patent publication US10717758B2, “D-amino acid compounds for liver disease” (priority 2012, dated 2020).
pEC50: −log10 of the molar value. Like-named read-outs stand apart in the source and are kept apart here.

Tests used:
Huh-7 cells = assay: Release of active metabolite in Huh-7 cells; type: in vitro ADME, human
Protocol: Huh-7 cells were plated in 1 mL culture medium (DMEM, containing glucose, L-glutamine and sodium pyruvate, 10% FBS, 100 IU/mL penicillin, 100 μg/mL streptomycin, 2 mM GlutaMAX, 1% MEM non-essential amino acids) at the concentration 0.8, 0.4 and 0.2 million cells per well on 6 well plates for 24, 48 and 72 hr treatment, respectively. Plated cells were incubated overnight at 37° C. in an incubator.
The following morning test compound was diluted to 20 μM from a stock solution in DMSO in fresh culture medium pre-warmed to 37° C. and 1 mL of the solution/well was added to cells. A final medium volume per well was 2.0 mL, test compound concentration in well was 10 μM and final DMSO concentration was 0.1%.
After 24, 48 or 72 hr, the medium was carefully removed and cell monolayers were washed twice with 2 mL ice-cold PBS per well. Following the last wash, all PBS was carefully removed and 1.0 mL of extraction solution (ice-cold 70% methanol) added. The plate was tightly covered with Parafilm, plastic plate cover and Parafilm again and an intracellular content was extracted at −20° C. for 24 hr.
After 24 hr the extracts were transferred into polypropylene microfuge tubes and dry on a refrigerated centrivap concentrator. Dry residues were reconstituted in 250 μL of HPLC-grade water and centrifuged at 16,000×g for 10 min. Aliquots (100 μL each) of the supernatants were transferred into a 96 well plate and internal standard (4 ng/mL final concentration) was added as the internal standard (IS) for LC-MS/MS analysis.

Zluc cells = assay: Cytotoxicity evaluation in Zluc cells (CellTiter-Blue); type: cell-based, human; conditions: read-out: HCV Replicon CC50
Protocol: (§1) For cytotoxicity evaluation, Zluc cells were treated with compound as described herein, and cell viability was monitored using the CellTiter-Blue Cell Viability Assay (Promega) by adding 20 μL of the assay solution to each well. The plates were then incubated at 37° C./5% CO2 for at least 3 hours.

fresh mouse hepatocyte = assay: Release of active metabolite in primary hepatocytes (mouse); type: in vitro ADME; conditions: 10 μM
Protocol: (§2) Plates of fresh human and mouse hepatocytes were obtained on ice. The medium was removed and replaced with hepatocyte culture medium (William's E supplemented with penicillin-streptomycin, 1% L-glutamine, 1% insulin-transferrin-selenium and 0.1 μM Dexamethasone (Invitrogen) or with Invitro GRO HI medium complemented with Torpedo antibiotics (Celsis)). Cells were left overnight in an incubator at 37° C. to acclimatize to culture and the medium.
(§3) Hepatocyte incubations were conducted at a final volume of 0.5 mL hepatocyte culture medium/well (0.8 million cells/well for human and 0.5 million cells/well for mouse; 12 well plate no overlay, collagen coat). Culture medium from overnight incubation of cells was removed and replaced with fresh medium, pre-warmed to 37° C., containing 10 μM of test compound from a stock solution in DMSO (final DMSO concentration was 0.1%). At each specific time point, incubation medium was removed and cell monolayers were carefully washed two times with ice-cold PBS. Following the last wash, all PBS was carefully removed and 1.0 mL of extraction solution (ice-cold 70% methanol/30% water) added. Cells were scraped off and suspended in the extraction solution, transferred to 2 mL polypropylene microfuge tubes and intracellular contents extracted overnight at −20° C.
After the overnight treatment the cellular extracts were prepared by centrifugation at 16,000×g for 10 min to remove cellular debris. The remaining sample was then dried using a refrigerated centrivap concentrator. Dry extracts were reconstituted in 1000 μL of HPLC-grade water and centrifuged at 16,000×g for 10 min. Aliquots (100 μL each) of the supernatant were transferred into a 96 well plate and internal standard (4 ng/mL final concentration) was added as the internal standard (IS) for LC-MS/MS analysis.
The incubation time points were 6, 24 and 48 hours for human hepatocytes and 1, 4, 8, 12 and 24 hours for mouse hepatocytes.

fresh human hepatocytes = assay: Release of active metabolite in primary hepatocytes (human); type: in vitro ADME; conditions: 10 μM
Protocol: as §2
as §3, with “−20° C. […]” for “−20° C.”

HCV genotype 1b replicon = assay: HCV replicon assay; type: cell-based; conditions: Hepatitis C virus
Protocol: Huh-7-derived cell line (Zluc) that harbors an HCV genotype 1b replicon and a luciferase reporter gene was grown in Dulbecco's Modified Eagle Medium (DMEM) supplemented with 10% fetal bovine serum, 2 mM GlutaMAX, 1% MEM nonessential amino acids, 100 IU/mL penicillin, 100 μg/mL streptomycin, and 0.5 mg/mL Geneticin® (G418). For dose response testing the cells were seeded in 96-well plates at 7.5×10^3 cells per well in a volume of 50 μL, and incubated at 37° C./5% CO2. Drug solutions were made up freshly in Huh-7 media as 2× stocks. Ten additional 5-fold dilutions were prepared from these stocks in DMEM without G418. At least three hours after Zluc cells were seeded, drug treatment was initiated by adding 50 μL of drug dilutions to the plates in duplicate. Final concentrations of drug ranged from 100 μM to […]. Cells were then incubated at 37° C./5% CO2. Alternatively, compounds were tested at two concentrations (1 μM and 10 μM). […] For this, media was removed from the plates via gentle tapping. Fifty microliters of ONE-glo luciferase assay reagent was added to each well. The plates were shaken gently for 3 min at room temperature and luminescence was measured on a Victor^3 V 1420 multilabel counter (Perkin Elmer) with a 1 second read time using a 700 nm cut-off filter. The EC50 values were calculated from dose response curves from the resulting best-fit equations determined by Microsoft Excel and XLfit 4.1 software. When screening at two fixed concentrations, the results were expressed as % inhibition at 1 μM and 10 μM.

[1] = Cytotoxicity evaluation in Zluc cells (CellTiter-Blue); type: cell-based, human; conditions: human, read-out: HCV Replicon CC50
Protocol: as §1

[2] = Plasma and liver PK after single oral dose (Example 4C); type: in vivo, CD-1 mice; conditions: at 1 μmol/kg; single oral dose 10 mg/kg for 804a or 25 mg/kg for 804b
Protocol: Plasma samples were analyzed for 2′-methyl-2′-fluorouridine (2′-Me-2′-F-U) by LC-MS/MS. The internal standard (IS) was D3-2′-F-2′-Me-G. For protein precipitation and extraction, each plasma sample (50 μL) was treated with 500 μL of 0.2% formic acid in acetonitrile and 20 μL of the internal standard working solution. After vortexing and centrifugation, 500 μL of the sample extracts were transferred to a new plate, dried under N2 at ˜28° C. and reconstituted with 75 μL of 0.2% FA in water. The extracts were chromatographed on an Aquasil C18 column using a gradient system of 0.2% formic acid in water and acetonitrile. The analytes were detected and quantified by tandem mass spectrometry in positive ion mode on an MDS Sciex API5000 equipped with a Turbo Ionspray® interface. The calibration range was 0.500 (LLOQ) to 200 ng/mL in mouse plasma. The corresponding range for molar units is 1.92 to 769 pmol/mL.
Liver samples were analyzed for the active species 2′-methyl-2′-fluorouridine triphosphate (2′-Me-2′-F—U TP) by LC-MS/MS. […] Internal standard solution was added to the homogenate followed by neutralization with 20% ammonium hydroxide solution and addition of 500 μL 1% formic acid. The tissue samples were extracted by weak anion exchange solid phase extraction (SPE). […]

[3] = target: T1, carboxylesterase 1 (CES1) (Homo sapiens, UniProt P23141); assay: Hydrolysis of prodrugs by Carboxylesterase 1; type: in vitro ADME; conditions: for CES1 hydrolysis: 100 μM compound, 37° C., pH 7.5
T1 construct: purchased R & D Systems (Minneapolis, Minn.)
T1 sequence (P23141 18-567): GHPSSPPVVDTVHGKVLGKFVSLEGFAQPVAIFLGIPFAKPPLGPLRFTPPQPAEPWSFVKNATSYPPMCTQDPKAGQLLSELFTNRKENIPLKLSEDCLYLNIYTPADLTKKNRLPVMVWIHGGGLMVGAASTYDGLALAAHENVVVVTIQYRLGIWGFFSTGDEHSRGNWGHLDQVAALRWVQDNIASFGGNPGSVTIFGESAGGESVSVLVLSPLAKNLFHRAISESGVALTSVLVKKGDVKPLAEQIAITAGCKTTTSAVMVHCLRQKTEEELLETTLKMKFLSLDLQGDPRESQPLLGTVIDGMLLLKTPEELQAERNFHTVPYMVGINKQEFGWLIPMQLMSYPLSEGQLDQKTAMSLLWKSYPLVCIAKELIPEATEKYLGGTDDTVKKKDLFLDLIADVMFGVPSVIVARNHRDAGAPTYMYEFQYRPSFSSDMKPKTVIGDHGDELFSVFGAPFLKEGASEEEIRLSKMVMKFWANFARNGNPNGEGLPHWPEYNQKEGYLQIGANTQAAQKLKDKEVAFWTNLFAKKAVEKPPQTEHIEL
Protocol: CES1 assay was performed at 37° C. in the reaction mixture containing 50 mM Tris/HCl buffer pH 7.5 and 100 μM of the compound. Reaction was started by addition of the CES1 to the final concentration 0.01 μg/mL. 100 μL aliquots were taken after 0.5 min, 3 hrs and 21 hrs of the incubation and the reaction was stopped by mixing with 100 μl of the ice-cold methanol prior to HPLC analysis.
Samples were analyzed by HPLC using 5 μC-18, 4.6×250 mm Phenomenex® Columbus column (Phenomenex USA, Calif.). The mobile phase consisted of buffer A (25 mM potassium phosphate with 5 mM tetrabutylammonium dihydrogen phosphate pH 6.3) and buffer B (100% methanol).

cathepsin A (CatA) = target: T2, cathepsin A (CatA) (Homo sapiens, UniProt P10619); assay: Hydrolysis of prodrugs by Cathepsin A; type: in vitro ADME; conditions: time not given; 100 μM compound, 37° C., pH 6.0
T2 sequence (P10619 29-326 limits assumed): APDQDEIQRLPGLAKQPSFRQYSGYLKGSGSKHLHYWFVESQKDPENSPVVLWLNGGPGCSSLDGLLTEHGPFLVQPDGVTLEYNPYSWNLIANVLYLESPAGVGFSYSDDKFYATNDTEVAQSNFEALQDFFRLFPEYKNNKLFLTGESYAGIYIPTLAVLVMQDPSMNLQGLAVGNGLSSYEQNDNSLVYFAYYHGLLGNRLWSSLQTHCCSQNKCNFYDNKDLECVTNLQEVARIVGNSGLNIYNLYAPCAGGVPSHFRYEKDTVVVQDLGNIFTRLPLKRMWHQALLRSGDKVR
T2 sequence (P10619 327-480 limits assumed): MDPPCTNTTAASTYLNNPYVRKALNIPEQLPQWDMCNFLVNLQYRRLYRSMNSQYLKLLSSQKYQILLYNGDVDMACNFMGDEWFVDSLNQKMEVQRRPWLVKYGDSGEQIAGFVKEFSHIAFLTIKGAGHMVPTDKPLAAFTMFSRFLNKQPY
Protocol: CatA, cathepsin L (CatL) and CES1 were purchased from R & D Systems (Minneapolis, Minn.). Prior to the enzymatic hydrolysis reactions, CatA was activated according to the manufacturer's instruction. Briefly, CatA (0.05 μg/μL) was incubated with CatL (0.005 μg/μL) for 30 min at 37° C. in 25 mM MES pH 6.0 containing 5 mM DTT. The reaction was stopped by addition of the CatL specific inhibitor E64 (10 μM).
The CatA assay was performed at 37° C. The reaction mixture contained 25 mM MES buffer pH 6.0, 100 mM NaCl, 4 mM DTT and 100 μM of the compound. The reaction was started by addition of the activated CatA enzyme to a final concentration of 0.005 μg/μL. […] Reactions were stopped by mixing the sample with an equal volume of ice-cold methanol, and were loaded on a HPLC for analysis.

[4] = Liver TP formation and liver targeting in vivo (Example 6, Table 7); parameters: species or system mice and monkey
Source text: The in vitro antiviral inactivity of Z4 and Z2 is thought to reflect an inability of Huh-7 replicon cells to metabolize the prodrug moiety.

[5] = 72 h, Zluc (Huh-7-derived) cells, luciferase reporter, 72 hours, read-out: HCV Replicon EC50

CC(C)OC(=O)[C@H](C)NP(=O)(OC[C@H]1O[C@@H](n2ccc(=O)[nH]c2=O)[C@](C)(Cl)[C@@H]1O)Oc1ccccc1 (single isomer, unassigned) [40ii Diastereomer 2]
Huh-7 TP AUC (Huh-7 cells; 10 μM test compound): 14544 pmol.hr/mill cells
Huh-7 TP Cmax (Huh-7 cells; 10 μM test compound): 294 pmol/mill cells
CC50 (Zluc cells): > 50 µM
MsH AUC (fresh mouse hepatocyte): 1794 pmol.hr/mill cells
MsH Cmax (fresh mouse hepatocyte): 87 pmol/mill cells
FHH TP AUC (fresh human hepatocytes): 4934 pmol.hr/mill cells
FHH TP Cmax (fresh human hepatocytes): 197 pmol/mill cells
pEC50 (HCV genotype 1b replicon; [5]): 6.00 to 6.60

CC(C)OC(=O)[C@@H](C)NP(=O)(OC[C@H]1O[C@@H](n2ccc(=O)[nH]c2=O)[C@](C)(Cl)[C@@H]1O)Oc1ccccc1 (single isomer, unassigned) [40i Diastereomer 1]
CC50 [1]: > 50 µM
MsH AUC (fresh mouse hepatocyte): 4052 pmol.hr/mill cells
MsH Cmax (fresh mouse hepatocyte): 198 pmol/mill cells
pEC50 (HCV genotype 1b replicon; [5]): < 5.00

CCOc1nc(N)nc2c1ncn2[C@@H]1O[C@H](COP(=O)(N[C@H](C)C(=O)OC(C)C)Oc2ccccc2)C[C@@]1(C)F (single isomer, unassigned) [502a Diastereomer 1]
CC50 [1]: < 50 µM
pEC50 (HCV genotype 1b replicon; [5]): 5.00 to 6.00

CC(C)OC(=O)[C@H](C)N[P@](=O)(OC[C@H]1O[C@@H](n2ccc(=O)[nH]c2=O)[C@](C)(F)[C@@H]1O)Oc1ccccc1 [GS-7977]
Ms Plasma 2′-Me-2′-F-U AUC [2]: 0.00115 M·s

CC(C)OC(=O)[C@@H](C)NP(=O)(OC[C@H]1O[C@@H](n2ccc(=O)[nH]c2=O)[C@](C)(Cl)[C@@H]1O)Oc1ccccc1 (single isomer, unassigned) [Compound 40i Diastereomer 1]
Huh-7 AUC0-72 (Huh-7 cells; Table 7): 436.9 pmol*hr/10^6cells
Hydrolysis by CES1 [3]: processed
CES1 hydrolysis ([3]; 3 h): 23% @
CES1 hydrolysis ([3]; 21 h): 3 h; 49%
CatA hydrolysis (cathepsin A (CatA)): 0%
Liver:plasma ratio of drug metabolites [4]: high liver:plasma ratio of drug metabolites
pEC50 (HCV genotype 1b replicon; Huh-7, read-out: EC50 (replicon reproduction), genotype 1b HCV replicon-bearing human hepatoma cell line (Huh-7)): < 4.30
